# Reference: PubChem BioAssay AID340 (DTP/NCI, 2004)
# “And” between values parts separate entries of the source, which are not always exact repeats. Equal values may be shown once. Inconclusive results and toxic doses are left out.
# Tested on: CD2F1 mice, ip reticulum cell sarcoma, survival T/C
# Assay: NCI In Vivo Anticancer Drug Screen. Data for tumor model Reticulum Cell Sarcoma (Kelley Mouse) (intraperitoneal) in CD2F1 (CDF1) mice
# Details: endpoint: median survival time, higher = longer survival
# Protocol: The antitumor activity of compounds was measured in mice bearing transplantable tumors. Survival or tumor size were measured and the results are expressed as the measurement made in the treated group (T) divided by the measurement made in the vehicle treated control group (C). The tumor model used in this assay is Reticulum Cell Sarcoma (Kelley Mouse) (intraperitoneal) in CD2F1 (CDF1) mice
# [1] = dose: 0.25 mg/kg/injection, schedule: Q01DX010 (ip), vehicle: saline
# [2] = dose: 1.0 mg/kg/injection, schedule: Q01DX010 (ip), vehicle: saline
# [3] = dose: 8.0 mg/kg/injection, schedule: Q01DX010 (ip), vehicle: saline
# [4] = dose: 16.0 mg/kg/injection, schedule: Q01DX010 (ip), vehicle: saline
# [5] = dose: 64.0 mg/kg/injection, schedule: Q01DX010 (ip), vehicle: saline
# [6] = dose: 125.0 mg/kg/injection, schedule: Q01DX010 (ip), vehicle: saline
# [7] = dose: 250.0 mg/kg/injection, schedule: Q01DX010 (ip), vehicle: saline
# [8] = dose: 500.0 mg/kg/injection, schedule: Q01DX010 (ip), vehicle: saline
# [9] = dose: 5.0 mg/kg/injection, schedule: Q01DX010 (ip), vehicle: saline
# [10] = dose: 10.0 mg/kg/injection, schedule: Q01DX010 (ip), vehicle: saline
# [11] = dose: 20.0 mg/kg/injection, schedule: Q01DX010 (ip), vehicle: saline
# [12] = dose: 40.0 mg/kg/injection, schedule: Q01DX010 (ip), vehicle: saline
# [13] = dose: 31.3 mg/kg/injection, schedule: Q01DX010 (ip), vehicle: saline
# [14] = dose: 62.5 mg/kg/injection, schedule: Q01DX010 (ip), vehicle: saline
# [15] = dose: 12.5 mg/kg/injection, schedule: Q01DX010 (sc), vehicle: steriod suspending solution
# [16] = dose: 25.0 mg/kg/injection, schedule: Q01DX010 (sc), vehicle: steriod suspending solution
# [17] = dose: 50.0 mg/kg/injection, schedule: Q01DX010 (sc), vehicle: steriod suspending solution
# [18] = dose: 100.0 mg/kg/injection, schedule: Q01DX010 (sc), vehicle: steriod suspending solution
# [19] = dose: 6.25 mg/kg/injection, schedule: Q01DX010 (ip), vehicle: saline
# [20] = dose: 12.5 mg/kg/injection, schedule: Q01DX010 (ip), vehicle: saline
# [21] = dose: 25.0 mg/kg/injection, schedule: Q01DX010 (ip), vehicle: saline
# [22] = dose: 50.0 mg/kg/injection, schedule: Q01DX010 (ip), vehicle: saline
# [23] = dose: 1.0 mg/kg/injection, schedule: Q01DX010 (ip), vehicle: other
# [24] = dose: 2.0 mg/kg/injection, schedule: Q01DX010 (ip), vehicle: other
# [25] = dose: 4.0 mg/kg/injection, schedule: Q01DX010 (ip), vehicle: other
# [26] = dose: 8.0 mg/kg/injection, schedule: Q01DX010 (ip), vehicle: other
# [27] = dose: 15.6 mg/kg/injection, schedule: Q01DX010 (ip), vehicle: saline
# [28] = dose: 100.0 mg/kg/injection, schedule: Q01DX010 (ip), vehicle: saline
# [29] = dose: 250.0 micrograms/kg/injection, schedule: Q01DX010 (ip), vehicle: saline
# [30] = dose: 500.0 micrograms/kg/injection, schedule: Q01DX010 (ip), vehicle: saline
# [31] = dose: 2.0 mg/kg/injection, schedule: Q01DX010 (ip), vehicle: saline
smiles,measurement,setting,value
C1CN1c1nc(N2CC2)nc(N2CC2)n1,T/C,"dose: 0.13 mg/kg/injection, schedule: Q01DX010 (ip), vehicle: saline",100 % of control
same,T/C,[1],100 % of control and 103 % of control
same,T/C,[2],123 % of control
Nc1nc(SCc2ccccc2)c2[nH]cnc2n1,T/C,[3],106 % of control
same,T/C,[4],106 % of control
same,T/C,[5],116 % of control
same,T/C,"dose: 128.0 mg/kg/injection, schedule: Q01DX010 (ip), vehicle: saline",112 % of control
CCOC(N)=O,T/C,[6],102 % of control
same,T/C,[7],97 % of control and 102 % of control
same,T/C,[8],100 % of control and 102 % of control
same,T/C,"dose: 1000.0 mg/kg/injection, schedule: Q01DX010 (ip), vehicle: saline",88 % of control and 100 % of control
Cc1cc(N(CCCl)CCCl)ccc1N=Nc1ccccc1C(=O)O,T/C,[9],100 % of control
same,T/C,[10],103 % of control
same,T/C,[11],113 % of control and 122 % of control
same,T/C,[12],106 % of control
CN(C)c1ccc(/C=C/c2ccnc3ccccc23)cc1,T/C,[9],100 % of control
same,T/C,[10],100 % of control and 112 % of control
same,T/C,[11],96 % of control and 100 % of control
same,T/C,[12],96 % of control and 103 % of control
CCCCNc1ncnc2c1cnn2C,T/C,[13],95 % of control and 100 % of control
same,T/C,[14],94 % of control and 102 % of control
same,T/C,[6],90 % of control and 100 % of control
C[C@]12C=CC(=O)C=C1CC[C@@H]1[C@@H]2[C@@H](O)C[C@@]2(C)[C@H]1CC[C@]2(O)C(=O)CO,T/C,[15],97 % of control and 100 % of control
same,T/C,[16],94 % of control and 100 % of control
same,T/C,[17],94 % of control and 97 % of control
same,T/C,[18],94 % of control and 100 % of control
Nc1nc(=S)c2[nH]cnc2[nH]1,T/C,"dose: 1.25 mg/kg/injection, schedule: Q01DX010 (ip), vehicle: saline",150 % of control and 170 % of control
same,T/C,[9],105 % of control and 120 % of control
same,T/C,[10],105 % of control and 108 % of control
CS(=O)(=O)OCCCCOS(C)(=O)=O,T/C,[19],94 % of control and 105 % of control
same,T/C,[20],97 % of control and 108 % of control
same,T/C,[21],100 % of control and 102 % of control
same,T/C,[22],100 % of control and 105 % of control
O=c1[nH]c(=O)n(C2CC(O)C(CO)O2)cc1F (stereo not drawn),T/C,[9],156 % of control
same,T/C,[11],171 % of control
same,T/C,[12],187 % of control
CN(C)[C@@H]1C(=O)C(C(N)=O)=C(O)[C@@]2(O)C(=O)C3=C(O)c4c(O)cccc4C[C@H]3C[C@@H]12,T/C,"dose: 3.75 mg/kg/injection, schedule: Q01DX010 (ip), vehicle: saline",100 % of control
same,T/C,"dose: 7.5 mg/kg/injection, schedule: Q01DX010 (ip), vehicle: saline",105 % of control and 107 % of control
same,T/C,"dose: 15.0 mg/kg/injection, schedule: Q01DX010 (ip), vehicle: saline",100 % of control and 102 % of control
same,T/C,"dose: 30.0 mg/kg/injection, schedule: Q01DX010 (ip), vehicle: saline",94 % of control and 100 % of control
Nc1ncnc2[nH]ncc12,T/C,"dose: 1.5 mg/kg/injection, schedule: Q01DX010 (ip), vehicle: saline",100 % of control and 107 % of control
same,T/C,"dose: 3.0 mg/kg/injection, schedule: Q01DX010 (ip), vehicle: saline",100 % of control and 110 % of control
same,T/C,"dose: 6.0 mg/kg/injection, schedule: Q01DX010 (ip), vehicle: saline",105 % of control and 110 % of control
same,T/C,"dose: 12.0 mg/kg/injection, schedule: Q01DX010 (ip), vehicle: saline",97 % of control and 100 % of control
C[C@@H]1C[C@@H]([C@H](O)CC2CC(=O)NC(=O)C2)C(=O)[C@@H](C)C1,T/C,[9],97 % of control and 100 % of control
same,T/C,[10],105 % of control and 108 % of control
same,T/C,[11],120 % of control
same,T/C,[12],105 % of control
O=C(Nc1ccc(C2=NCCCN2)cc1)c1ccc(NC(=O)c2ccc(C3=NCCCN3)cc2)cc1,T/C,[23],117 % of control
same,T/C,[24],208 % of control and 222 % of control
same,T/C,[25],177 % of control
same,T/C,[26],122 % of control
O=C(Nc1ccc(C2=NCCCN2)cc1)c1ccc(C(=O)Nc2ccc(C3=NCCCN3)cc2)cc1,T/C,"dose: 0.5 mg/kg/injection, schedule: Q01DX010 (ip), vehicle: other",117 % of control and 120 % of control
same,T/C,[23],186 % of control and 202 % of control
same,T/C,[24],248 % of control
N=[N+]=CC(=O)OCC(N)C(=O)O (stereo not drawn),T/C,"dose: 3.13 mg/kg/injection, schedule: Q01DX010 (ip), vehicle: saline",106 % of control
same,T/C,[19],113 % of control
same,T/C,[20],120 % of control
same,T/C,[21],116 % of control
c1ccc(CNc2ncnc3[nH]ncc23)cc1,T/C,[3],100 % of control and 105 % of control
same,T/C,[4],100 % of control and 105 % of control
same,T/C,"dose: 32.0 mg/kg/injection, schedule: Q01DX010 (ip), vehicle: saline",100 % of control and 105 % of control
same,T/C,[5],95 % of control and 97 % of control
CCN(CCNc1ccc(C)c2sc3cc(Cl)ccc3c(=O)c12)CC(C)O (stereo not drawn),T/C,"dose: 7.8 mg/kg/injection, schedule: Q01DX010 (ip), vehicle: saline",94 % of control
same,T/C,[27],94 % of control
same,T/C,[14],94 % of control
same,T/C,[6],88 % of control
same,T/C,[7],88 % of control
CC/C(=C(/CC)c1ccc(O)cc1)c1ccc(O)cc1,T/C,[15],105 % of control and 110 % of control
same,T/C,[16],105 % of control
same,T/C,[17],100 % of control and 110 % of control
same,T/C,[18],105 % of control and 115 % of control
CS(=O)(=O)OCCC(=O)N1CCN(C(=O)CCOS(C)(=O)=O)CC1,T/C,[20],111 % of control and 114 % of control
same,T/C,[22],114 % of control
same,T/C,[28],114 % of control
COc1cc(-c2ccc(Nc3ccccc3C(=O)O)c(OC)c2)ccc1Nc1ccccc1C(=O)O,T/C,[22],105 % of control
same,T/C,[28],100 % of control
COC(=O)[C@@H]1c2cc3c(c(O)c2[C@@H](OC2OC(C)C(OC)C(C)(OC)C2OC)C[C@]1(C)O)C(=O)c1c(O)cc2c(c1C3=O)O[C@H]1O[C@]2(C)[C@H](O)[C@@H](N(C)C)[C@@H]1O (stereo partly drawn),T/C,"dose: 63.0 micrograms/kg/injection, schedule: Q01DX010 (ip), vehicle: saline",103 % of control
same,T/C,"dose: 125.0 micrograms/kg/injection, schedule: Q01DX010 (ip), vehicle: saline",103 % of control and 105 % of control
same,T/C,[29],103 % of control and 105 % of control
same,T/C,[30],100 % of control
same,T/C,"dose: 1000.0 micrograms/kg/injection, schedule: Q01DX010 (ip), vehicle: saline",94 % of control
CS(=O)(=O)OCCN(CCOS(C)(=O)=O)c1ccc(N=O)cc1,T/C,[2],103 % of control and 110 % of control
same,T/C,[31],96 % of control
same,T/C,"dose: 62.5 micrograms/kg/injection, schedule: Q01DX010 (ip), vehicle: saline",116 % of control
same,T/C,[29],166 % of control
same,T/C,[30],175 % of control
Nc1c(Br)cc2c(c1Br)Cc1cc([N+](=O)[O-])ccc1-2,T/C,[27],100 % of control
same,T/C,[13],100 % of control
same,T/C,[14],88 % of control and 103 % of control
same,T/C,[6],94 % of control and 100 % of control
CN(C)/N=N/c1nc[nH]c1C(N)=O,T/C,[22],100 % of control
same,T/C,[28],107 % of control and 120 % of control
same,T/C,"dose: 400.0 mg/kg/injection, schedule: Q01DX010 (ip), vehicle: saline",100 % of control
O=C(Nc1ccc(C2=NCCN2)cc1)c1ccc(C(=O)Nc2ccc(C3=NCCN3)cc2)cc1,T/C,[25],168 % of control
same,T/C,[26],277 % of control and 302 % of control
same,T/C,"dose: 16.0 mg/kg/injection, schedule: Q01DX010 (ip), vehicle: other",242 % of control and 302 % of control
same,T/C,"dose: 32.0 mg/kg/injection, schedule: Q01DX010 (ip), vehicle: other",166 % of control and 231 % of control
same,T/C,"dose: 64.0 mg/kg/injection, schedule: Q01DX010 (ip), vehicle: other",168 % of control
Nc1nc(F)nc2c1ncn2C1OC(CO)C(O)C1O (stereo not drawn),T/C,[1],100 % of control
same,T/C,"dose: 0.5 mg/kg/injection, schedule: Q01DX010 (ip), vehicle: saline",100 % of control and 105 % of control
same,T/C,[2],91 % of control and 103 % of control
same,T/C,[31],100 % of control and 105 % of control
same,T/C,"dose: 4.0 mg/kg/injection, schedule: Q01DX010 (ip), vehicle: saline",88 % of control
O=c1cn[nH]c(=O)[nH]1,T/C,[14],92 % of control and 100 % of control
same,T/C,[6],95 % of control and 100 % of control
same,T/C,[7],97 % of control
same,T/C,[8],90 % of control and 102 % of control
